Results as given in US8906925B2, “Pyrido[4,3-B]indoles containing rigid moieties” (Medivation Technologies, Inc., priority 2008, dated 2014).

Tests used:
Sprague-Dawley rats = assay: Two-trial novel object recognition in scopolamine treated rats; type: in vivo, rat; details: 0.3 mg/kg
Method: Ennaceur, A., and Delacour, J. (1988), Behav. Brain Res. 31:47-59. […] See, e.g., Scali, C., et al., (1994), Neurosci. Letts. […] 53:277-283.
Male Sprague-Dawley rats between six and seven weeks old, weighing between 220-300 grams are obtained from Centre d'Elevage (Rue Janvier, B. P. 55, Le Genest-Saint-Isle 53940, France). The animals are housed in groups of 2 to 4 in polypropylene cages (with a floor area of 1032 cm^2) under standard conditions: at RT (22±2° C.), under a 12 h light/12 h dark cycle, with food and water provided ad libitum.
The experimental arena is a square wooden box (60 cm×60 cm×40 cm) painted dark blue, with 15 cm×15 cm black squares under a clear plexiglass floor. The arena and objects placed inside the arena are cleaned with water between each trial to eliminate any odor trails left by rats. […]
Novel object recognition test is comprised of two trials separated by an interval of 120 min. or 24 hours. […] The time required for each animal to complete 15 seconds of object exploration is determined, with a cut-off time of four min. […] Rats are placed back in the arena for three min., and exploration of both objects is determined. Locomotor activity of rats (number of times rats cross grid lines visible under the clear plexiglass floor) is scored for during T1 and T2. […]
Recognition scores and % of good learners for compounds of the invention are determined.

[1] = tested on: rat mixed cortical cultures; assay: Neurite outgrowth in rat mixed cortical cultures; type: cell-based; details: 50 nM, 48 h, vs vehicle
Method: Cortical mixed cultures are prepared from E18 Wistar rat embryos. The cortices are dissected out and the tissue was cut to small pieces. The cells are separated by 15-min. incubation with DNase and papain. The cells are collected by centrifugation (1500 rpm, 5 min.). The tissue is triturated with a pipette and the cells are plated using the micro-islet protocol (20 000 cells in […] medium) on poly-L-lysine coated 48 wells, in MEM supplemented with 2 mM glutamine, […] gentamicin, 10% heat-inactivated fetal bovine serum (FBS-HI) and 10% heat-inactivated horse serum (HS-HI). After the cells had attached to the well, 250 μl medium is added to the wells. […] BDNF levels in the conditioned media are determined with a BDNF ELISA using the manufacturers (Promega, BDNF Emax® ImmunoAssay System, catalog number: G7610) instructions.
The cultures are fixed with 4% formaldehyde in 0.01 M PBS for 30 min. and washed once with PBS. […] The immunopositive cells are visualized by a fluorescence microscope equipped with appropriate filter set, and documented by a high resolution image capturing. The number of cells per field (4 field per well) are counted, and the neurite outgrowth was quantified using Image Pro Plus software. […]
Compounds of the invention were evaluated on their effect on neurite outgrowth in rat mixed neuronal cultures. […]

## C/C(=C\n1c2c(c3cc(Cl)ccc31)CN(C)CC2)c1ccncc1 [Compound 90, (E)-8-chloro-2,3,4,5-tetrahydro-2-methyl-5-(2-(pyridin-4-yl)prop-1-enyl)-1H-pyrido[4,3-b]indole]
Sprague-Dawley rats
  activity in object recognition in the presence of scopolamine: activity

## C/C(=C\n1c2c(c3cc(Cl)ccc31)CN(C)CC2)c1ccc(F)cc1 [Compound 83, (E)-8-chloro-5-(2-(4-fluorophenyl)prop-1-enyl)-2,3,4,5-tetrahydro-2-methyl-1H-pyrido[4,3-b]indole]
[1]
  Mean Process+Branch Number (number of branched processes): significantly increased
